Measured values: patent US4794116A, “Anti-allergic esters, acetal ethers, thioethers and nitrogen substituted derivatives of bicyclic compounds” (Schering Corporation, priority 1986, dated 1988)

Legend:
[1] = test system: anaphylactic bronchospasm; test: inhibition of anaphylactic bronchospasm in sensitized guinea pigs having antigen induced broncho-constriction; format: in vivo, guinea pig (male Hartley); conditions: for % Inhibition After 8 hr (peak increase in intratracheal pressure): 8 hours before ovalbumin challenge
Method: The anti-allergy method of this invention is identified by tests which measure a compound's inhibition of anaphylactic bronchospam in sensitized guinea pigs having antigen induced broncho-constriction.
In one such test procedure, male Hartley guinea pigs (250-300 g) are sensitized with 5 mg ovalbumin injected i.p. and 5 mg injected s.c. in 1 ml saline on day 1 and 5 mg ovalbumin injected i.p. on day 4. The sensitized animals are used 3-4 weeks later at which time they weigh 450-500 g.
The sensitized guinea pigs are fasted overnight and the following morning are anesthetized with 0.9 ml/kg i.p. of dialurethane (0.1 g/m diallybarbituric acid, 0.4 g/ml ethylurea and 0.4 g/ml urethane). The trachea are cannulated and the animals are ventilated by a Harvard rodent respirator at 50 strokes/minute with a stroke volume of 5 ml. A side arm to the tracheal cannula is connected to a Harvard pressure transducer to obtain a continuous measure of intratracheal pressure which is recorded on a Harvard polygraph. The jugular vein is cannulated for the i.v. administration of substances. The animals are challenged with antigen (0.5% ovalbumin) as an aerosol generated from a DeVilbiss Model 65 ultrasonic nebulizer and delivered through the tracheal cannula for 30 seconds. Bronchoconstriction is measured as the peak increase in intratracheal pressure occuring within 5 minutes after antigen challenge.
The sensitized guinea pigs are injected i.v. with 1 mg/kg propranolol, 5 mg/kg indomethacin and 2 mg/kg mepyramine given together in a volume of 1 ml/kg. Fifteen minutes later the animals are challenged with nebulized ovalbumin. Test compounds are administered orally 2 or 8 hours before challenge with ovalbumin. Suppression of anaphylactic bronchospasm is expressed as a percent inhibition of the peak increase in intratracheal pressure by comparison to a vehicle-treated control group.
*This measurement was made in a 21/2 day multipledosing regimen version o

paw edema = test: Reversed Passive Arthus Response (RPAR) Paw; format: in vivo, rat (male Lewis); conditions: oral dose of 25 mg/kg; for inhibited the paw edema at 2 hours: 2 hours post-challenge; for inhibited the paw edema at 4 hours: 4 hours post-challenge
Method: Reversed Passive Arthus Response (RPAR) PAW Animals, Materials and Methods
Male Lewis inbred albino rats weighing 180-200 grams obtained from Charles River Breeding Laboratories are used in these experiments. The rats are housed 3 animals/cage and food and water are allowed ad libitum. The animals are numbered 1-3 in each cage and color marked for identification purposes.
CL Drug and Reagent Preparation
All reagents and drugs are prepared just prior to the study. Crystallized and lyophilized bovine serum albumin (BSA), available from Sigma Chemical Company, is solubilized without shaking in cold, sterile, pyrogen-free saline (10 mg/ml). Lyophilized anti-bovine serum albumin (IgG fraction), obtained from Cappel Laboratories, is suspended in sterile distilled water and diluted with cold, pyrogen-free saline (PFS) just prior to use. The final concentration of anti-bovine serum albumin is 0.5 mg/ml of PFS. Both BSA and anti-BSA solutions are iced during use. Drugs are suspended or solubilized in an aqueous solution of methyl cellulose (MC) with an homogenizer just prior to administration.
Drug Administration and Induction of Inflammation
Groups of animals (6/group) are dosed with drug in MC by gavage once daily for 3 days. The last dose is administered one hour prior to sensitization with BSA. Controls are given MC alone and a drug-standard is usually included in each assay for verification purposes. Drugs are prepared and diluted so as to provide a dose for a 200 gram animal which is equivalent to the mg/kg dose for each experiment. Thus each rat receives an oral dose in a volume of approximately 2.0 cc. One hour after the last dose the animals are lightly anesthetized with ether and "sensitized" by injection of 0.2 ml of PFS containing 1.0 mg of BSA into the penile vein. One hour later, the animals are "challenged" in the right rear paw with subplantar injections of 0.2 ml of PFS containing 0.1 mg of anti-BSA. Immediately after the subplantar injection, the right paw is dipped (up to the lateral maleolus) into the mercury well of a plethysmograph. The volume of mercury displaced is converted to weight and recorded. This value is considered to be the control reading for the animal. Paw volumes are subsequently recorded with a plethysmograph during the development of the inflammation at 2 and 4 hours post-challenge.
Results are expressed by the change in paw volume (Δpaw volume) from the control reading for each animal to that recorded 2 and 4 hours post-challenge. All drug treated groups are compared to the MC control for significant differences with an analysis of variance. Differences from control in drug-treated groups are expressed as percent change from control. […]

[2] = 5 mg/kg p.o., 2 hours before ovalbumin challenge

Q: With `CC(=O)Oc1c(N2CCCC2)c(=O)n(-c2ccccc2)c2ncccc12` [Example 2, 4-acetyloxy-1-phenyl-3-(1-pyrrolidinyl)-1,8-naphthyridin-2(1H)-one] as the molecule, how does the “% Inhibition After 2 hr (peak increase in intratracheal pressure)” value ([1]; 10 mg/kg p.o., 2 1/2 day multiple-dosing regimen version of the assay) read?
A: The value was 87%.

Q: Which results are given for `CC(C)(C)C(=O)Oc1c(N2CCCC2)c(=O)n(-c2ccccc2)c2ncccc12` [Example 3, 4-(2,2-dimethylpropionyloxy)-1-phenyl-3-(1-pyrrolidinyl)-1,8-naphthyridin-2(1H)-one]?
A: inhibited the paw edema at 2 hours (paw edema): 28%; inhibited the paw edema at 4 hours (paw edema): 5%; % Inhibition After 2 hr (peak increase in intratracheal pressure) [1, 2]: 48%; % Inhibition After 8 hr (peak increase in intratracheal pressure) ([1]; 5 mg/kg p.o.): 49%

Q: With `Cc1ccc(C(=O)Oc2c(N3CCCC3)c(=O)n(-c3ccccc3)c3ncccc23)cc1` [Example 1, 4-(4-methylbenzoyloxy)-1-phenyl-3(1-pyrrolidinyl)-1,8-naphthyridin-2(1H)-one] as the molecule, how does the “% Inhibition After 2 hr (peak increase in intratracheal pressure)” value [1, 2] read?
A: The value was 30%.

Q: What about the “% Inhibition After 8 hr (peak increase in intratracheal pressure)” value ([1]; 5 mg/kg p.o.) of the same molecule?
A: The value was 0%.

Q: What does the source list for `CCN(CC)C(=O)Oc1c(N2CCCC2)c(=O)n(-c2ccccc2)c2ncccc12` [Example 4, 4-(N,N-diethylcarbamoyloxy)-1-phenyl-3-(1-pyrrolidinyl)-1,8-naphthyridin-2(1H)-one]?
A: inhibited the paw edema at 2 hours (paw edema): 54%; inhibited the paw edema at 4 hours (paw edema): 17%; % Inhibition After 2 hr (peak increase in intratracheal pressure) [1, 2]: 48%; % Inhibition After 8 hr (peak increase in intratracheal pressure) ([1]; 5 mg/kg p.o.): 32%
